Source: US5852001A, “Method and compounds for inhibition of ribonucleases” (The Endowment for Research in Human Biology, priority 1996, dated 1998)
Where two headings read alike, the source gives them in different places.

Assays:
RNase A [1] = biological target: T1, RNase A (Bos taurus, UniProt P61823); conditions: pH 7; read-out: inhibition constant Ki (reported); cited from earlier work
T1 sequence (P61823 27-150): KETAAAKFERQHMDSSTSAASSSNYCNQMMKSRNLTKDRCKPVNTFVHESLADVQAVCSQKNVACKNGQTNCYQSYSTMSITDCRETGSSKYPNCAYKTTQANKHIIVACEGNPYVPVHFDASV

RNase A [2] = biological target: T1, RNase A; experiment: RNA protection assay (tRNA, agarose gel electrophoresis); type: biochemical, bovine; conditions: 0.5 mM inhibitor, 0.2 nM RNase A, pH 7.0, 20 minutes, 25° C.
Protocol: 3 μg of tRNA were incubated in 30 μl of 20 mM Hepes, 130 mM NaCl (pH 7.0) containing 30 μg/ml bovine serum albumin, 0.2 nM RNase A and the inhibitor. After 20 minutes of incubation at 25° C., the reaction mixture was analyzed by agarose gel electrophoresis and staining with ethidium bromide. This assay was chosen since a single endonucleolytic cleavage in a polymeric RNA molecule can produce a large variation of the molecular size which can be easily detected by agarose gel electrophoresis.

RNase A [3] = biological target: T1, RNase A; experiment: Inhibition of RNase A activity toward CpA, HPLC method
Protocol: Assays were performed in 60 μl of 0.2M Mes (pH 5.9) containing 50 μg/ml nuclease-free bovine serum albumin (obtained from Worthington), 20 μM CpA, and 23-320 pM RNase A. After 14-96 minutes of incubation at 25° C., substrate and products were quantitated by C18 /HPLC with a 20 minute linear gradient from 0 to 5.6% acetonitrile in 0.1% trifluoroacetic acid at a flow rate of 1.5 ml/min recording absorbance at 254 nm. Values of Km /kcat were then calculated (according to the method of Shapiro et al., 1986, Biochemistry 25:7255-7264) and plotted vs. the inhibitor concentration [I]. The Ki value is the -[I] intercept of a three- or four-point plot of Km /kcat, vs. [I] and was obtained by linear regression.

RNase A [4] = biological target: T1, RNase A; type: biochemical, bovine; conditions: for Ki: 25° C.
Protocol: Inhibition was assessed from the dependence of 1/v0 on [I], where v0 represents the velocity measured during the initial 5-10% of the enzymatic reaction and [I] is the inhibitor concentration. Since the substrate concentration used in these assays is well below Km, the -[I] intercept of such a plot should closely approximate Ki for simple inhibition mechanisms.

hRNase-4 = biological target: T2, hRNase-4 (Homo sapiens, UniProt P34096); experiment: Inhibition of human ribonuclease hRNase-4, method of Example IX
T2 sequence (P34096 29-147): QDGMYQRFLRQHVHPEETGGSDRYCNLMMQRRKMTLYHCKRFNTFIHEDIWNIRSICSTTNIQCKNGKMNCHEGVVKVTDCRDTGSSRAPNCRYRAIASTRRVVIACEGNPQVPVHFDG
Protocol: (§1) Assays were performed at 25° C. with the dinucleotide cytidylyl-(3',5')-guanosine (75 μM) as substrate in 0.2M Mes (pH 5.9), 0.2M Hepes (pH 7.0), or 0.2M Hepes (pH 8.0), containing 10 μg/ml bovine serum albumin. The decrease in absorbance at 286 nm following the addition of RNase A was continuously monitored. Inhibition was assessed from the dependence of 1/v0 on [I], where v0 represents the velocity measured during the initial 5-10% of the enzymatic reaction and [I] is the inhibitor concentration. Since the substrate concentration used in these assays is well below Km, the -[I] intercept of such a plot should closely approximate Ki for simple inhibition mechanisms.

hRNase-2 = hRNase-2 (Homo sapiens, UniProt P10153); experiment: Inhibition of human ribonuclease hRNase-2, method of Example IX; type: biochemical
Protocol: as §1

[5] = 0.2M Mes pH 5.9, 75 μM CpG, read-out: Ki at indicated pH, pH 5.9
[6] = 0.2M Hepes pH 7.0, 75 μM CpG, read-out: Ki at indicated pH, pH 7
[7] = 0.2M Hepes pH 8.0, 75 μM CpG, read-out: Ki at indicated pH, pH 8

Sequence of hRNase-2 (P10153 28-161): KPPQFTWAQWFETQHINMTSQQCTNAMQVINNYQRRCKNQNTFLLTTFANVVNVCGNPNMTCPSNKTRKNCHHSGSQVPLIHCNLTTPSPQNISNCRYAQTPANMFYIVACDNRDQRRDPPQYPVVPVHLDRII

Compound	Ki (RNase A [3]) [µM]	protection of tRNA from the catalytic action of RNase A (RNase A [2])	Ki (RNase A [4]; [5]) [µM]	Ki (RNase A [4]; [6]) [µM]	Ki (RNase A [4]; [7]) [µM]	also measured
Nc1ccn([C@@H]2O[C@H](CO)[C@@H](O)[C@H]2OP(=O)(O)O)c(=O)n1 [2'-CMP, Cytidine 2'-monophosphate]	3.1	partial protection				Ki (RNase A [1]): 147 µM
Cc1cn([C@H]2C[C@H](OP(=O)(O)OP(=O)(O)OC[C@H]3O[C@@H](n4cnc5c(N)ncnc54)C[C@@H]3O)[C@@H](CO)O2)c(=O)[nH]c1=O [TppdA, thymidine-(3'-Pβ)-5'-diphospho-2'-deoxyadenosine]			3.5			
Nc1ncnc2c1ncn2[C@@H]1O[C@H](COP(=O)(O)OP(=O)(O)O[C@H]2C[C@H](n3ccc(=O)[nH]c3=O)O[C@@H]2CO)[C@@H](O)[C@H]1OP(=O)(O)O [dUppA2'p, 2'-deoxyuridine-(3'-Pβ)-5'-diphosphoadenosine-2'-phosphate]			0.66			fold higher Ki than that for dUppAp (RNase A [4]; pH 5.9): 5 fold
Nc1ncnc2c1ncn2[C@@H]1O[C@H](COP(=O)(O)OP(=O)(O)O[C@H]2C[C@H](n3ccc(=O)[nH]c3=O)O[C@@H]2CO)[C@@H](OP(=O)(O)O)[C@H]1O [dUppAp, 2'-deoxyuridine-(3'-Pβ)-5'-diphosphoadenosine-3'-phosphate]			0.13	1.1	44	
Cc1cn([C@H]2C[C@H](OP(=O)(O)OP(=O)(O)OC[C@H]3O[C@@H](n4cnc5c(N)ncnc54)[C@H](O)[C@@H]3OP(=O)(O)O)[C@@H](COP(=O)(O)O)O2)c(=O)[nH]c1=O [pTppAp, 5'-phosphothymidine-(3'-Pβ)-5'-diphosphoadenosine-3'-phosphate]			0.052	0.18	28	factor by which RNase A inhibition constant is lower than that for ppAp (RNase A [4]; pH 5.9): 4.6; factor by which RNase A inhibition constant is lower than that for ppAp (RNase A [4]; pH 7): 7.2; factor by which RNase A inhibition constant is lower than that for ppAp (RNase A [4]; pH 8): 7.8; Ki (hRNase-4): 0.27 µM; Ki (hRNase-2; pH 5.9, read-out: Ki at pH 5.9, hRNase-2): 0.5 µM
Nc1ncnc2c1ncn2[C@@H]1O[C@H](COP(=O)(O)OP(=O)(O)O[C@H]2C[C@H](n3ccc(=O)[nH]c3=O)O[C@@H]2COP(=O)(O)O)[C@@H](OP(=O)(O)O)[C@H]1O [pdUppAp, 5'-phospho-2'-deoxyuridine-(3'-Pβ)-5'-diphosphoadenosine-3'-phosphate]			0.035	0.21	22	factor by which RNase A inhibition constant is lower than that for ppAp (RNase A [4]; pH 5.9): 6.9; factor by which RNase A inhibition constant is lower than that for ppAp (RNase A [4]; pH 7): 6.2; factor by which RNase A inhibition constant is lower than that for ppAp (RNase A [4]; pH 8): 9.9; Ki (hRNase-4): 0.28 µM; Ki (hRNase-2): 0.22 µM
Nc1ncnc2c1ncn2[C@@H]1O[C@H](COP(=O)(O)OP(=O)(O)O)[C@@H](OP(=O)(O)O)[C@H]1O [ppAp, 5'-diphosphoadenosine-3'-phosphate]	0.24	fully protecting	0.24	1.3	217	Ki (hRNase-2): 0.25 µM
uridine-vanadate		partial protection				Ki (RNase A [1]): 10 µM

Further lines, with some results ahead:

Ki (RNase A [3]) [µM]	Compound	protection of tRNA from the catalytic action of RNase A (RNase A [2])	Ki (RNase A [4]; [5]) [µM]	Ki (RNase A [4]; [6]) [µM]	Ki (RNase A [4]; [7]) [µM]	also measured
1300	Cc1cn([C@H]2C[C@H](OP(=O)(O)OC[C@H]3O[C@@H](n4cnc5c(N)ncnc54)C[C@@H]3O)[C@@H](CO)O2)c(=O)[nH]c1=O [TpdA, thymidylyl-(3'-5')-2'-deoxyadenosine]					
5.6	Nc1ncnc2c1ncn2[C@@H]1O[C@H](COP(=O)(O)O)[C@@H](OP(=O)(O)O)[C@H]1O [pAp, adenosine 3',5'-diphosphate]					
